Source: US6103709A (priority 1998, dated 2000)
Entries after “also recorded” stand apart in the source; their conditions may differ.

Columns and labels:
[1] = system: MAP-kinase p42^mapk in NB4 cells; test: MAP-kinase activation (p42mapk phosphorylation) in NB4 cells; assay type: cell-based, human
Description: In order to determine whether MAP-kinase phosphorylation is specific and is altered by 1α,25(OH)2 D3, the time-dependent effects of 1α,25(OH)2 D3 on p42^mapk phosphorylation was examined using human acute promyelocytic leukemia cells (NB4). In this study, the NB4 cells, cultured in 10% charcoal-stripped fetal calf serum (FCS) medium, were treated with 1α,25(OH)2 D3 at 10^-8 M for various time periods. Cells were then extracted and the phosphorylated MAP-kinase was immunoprecipitated with anti-phosphotyrosine antibody and further analyzed by Western blot using the antibodies against p42^mapk.
The lysate was further processed for anti-phosphotyrosine immunoprecipitation. […] After transferring the proteins to the PVDF membrane, the membrane was further incubated with primary anti-p42^mapk antibodies that were (+) or were not (-) pre-exposed to MAP-kinase peptide.
This example describes assays used for measurement of MAP-kinase activity in NB4 cells.
Cell culture of NB4 cells
The cell line is characterized by a translocation involving chromosomes 15 and 17, which is typical of the classical form of APL-M3 in the French-American-British [FAB] classification. NB4 cells were cultured in DMEM/F12 medium with 10% FCS at 5% CO2 balanced air and were routinely passaged as suspension cultures and only passages 8 to 20 were used for each assay.
Immunoprecipitation of Tyrosine-Phosphorylated Proteins
NB4 cells were cultured in 60-mm diameter dishes and treated with 1,25(OH)2 D3 or analogs in 4 ml of DMEM/F12 containing 10% charcoal-stripped FCS.
Insoluble material was removed in a microcentrifuge at 14,000 rpm for 10 min. Protein concentration was determined with a protein assay kit (Bio-Rad Lab, Hercules, Calif.). For immunoprecipitation, the supernatant was incubated with bead-conjugated monoclonal anti-phosphotyrosine antibody overnight at 4° C. The immunoprecipitates containing the tyrosine-phosphorylated proteins were washed four times with freshly-prepared RIPA buffer and further eluted with 2× Laemmli gel buffer.
At this point, the samples were either stored at -20° C. for further use or processed via Western blots. Equal loading of MAP-kinase protein was determined by running the Western blots using polyclonal anti-p42^mapk antibody. For this purpose, samples were aliquoted from each cell extract before immunoprecipitation.
SDS Gel Electrophoresis and Western blot
The membrane was further immunoblotted using a rabbit anti-p42^mapk polyclonal antibody overnight at 4° C. followed by incubation with secondary horseradish peroxidase-conjugated mouse anti-rabbit antibody for 1 hr at 25° C. The phosphorylated MAP-kinase bands were then visualized by enhanced chemiluminescence (ECL). A Ultrascan LX Laser Densitometer (LKB, Bromma, Sweden) scanned the density of the immuno-phosphoprotein bands. The results were normalized by protein loading and further plotted as percent of control of the band density.

[2] = system: chloride channels in ROS 17/2.8 cells; conditions: 1 nM HL in the bath; 1α,25(OH)2 D3 5 nM or less
Description: In each case, at least a 3-min period was allowed after the addition of the analog to the bath for currents to reach a stable amplitude value. […] Anion currents were isolated from inward Ba^2+ currents after blockade of Ca^2+ channels with 100 μM Cd^2+.

[3] = system: VDRmem; test: Binding to membrane receptor VDRmem; conditions: relative to 1α,25(OH)2 D3

| Compound | antagonism of 1α,25(OH)2 D3-mediated MAP-kinase activation ([1]; HL 10^-9 M with 1α,25(OH)2 D3 at 1, 10 or 100×10^-10 M, 5 min) | stimulation of MAP-kinase by analog alone ([1]; HL alone) | antagonism of 1α,25(OH)2 D3-stimulated chloride channel opening [2] | activation of MAP-kinase versus 1α,25(OH)2 D3 ([1]; 1 minute) | activation of MAP-kinase versus 1α,25(OH)2 D3 ([1]; 5 minute) | binding to VDRmem receptor [3] |
| --- | --- | --- | --- | --- | --- | --- |
| C=C1/C(=C\C=C2/CCC[C@]3(C)[C@@H]([C@H](C)CCCC(C)(C)O)CC[C@@H]23)C[C@@H](O)C[C@H]1O [HL] | antagonist of activation of MAP-kinases; also recorded: capable of antagonizing rapid responses; also recorded: able to block 1α,25(OH)2 D3 | no stimulation of MAP-kinase | capable of antagonizing rapid responses; also recorded: inhibit the ability of 1α,25(OH)2 D3 to increase outward currents | – | – | – |
| C[C@H](CCCC(C)(C)O)[C@H]1CC[C@H]2C3=CC=C4C[C@@H](O)C[C@H](O)[C@@]4(C)[C@@H]3CC[C@]12C [JN] | – | – | – | more than 1α,25(OH)2 D3 | only slightly less active | 105% |
